Results reported in PMC8038958 (The AAPS Journal, 2021).

Experiment: Population pharmacokinetic analysis (NONMEM, two-compartment model) of vancomycin serum concentrations from routine TDM
[1] = structural base model without covariates, estimate (RSE %)

## CN[C@H](CC(C)C)C(=O)N[C@H]1C(=O)N[C@@H](CC(N)=O)C(=O)N[C@H]2C(=O)N[C@H]3C(=O)N[C@H](C(=O)N[C@H](C(=O)O)c4cc(O)cc(O)c4-c4cc3ccc4O)[C@H](O)c3ccc(c(Cl)c3)Oc3cc2cc(c3O[C@@H]2O[C@H](CO)[C@@H](O)[C@H](O)[C@H]2O[C@H]2C[C@](C)(N)[C@H](O)[C@H](C)O2)Oc2ccc(cc2Cl)[C@H]1O [Vancomycin]
Alternative model with power function instead of linear TBW, not retained
  estimated exponent of TBW on V1 and V2: 1.05
Structural base model without covariates, 1892 children 1-18 years, normal weight, overweight, obese, intermittent i.v. infusion, estimate (RSE %)
  CL: 2.17 (2) L/h
[1]
  Q (inter-compartmental clearance between V1 and V2): 2.24 (4) L/h
  V1 (volume of distribution of central compartment): 5.27 (8) L
  V2 (volume of distribution of the peripheral compartment): 11.9 (8) L
